Laboratory results as given in the METLIN SMRT retention time set (Domingo-Almenara et al. 2019).

Test: gradient 5% acetonitrile 3 min, to 50% in 2 min, to 85% in 15 min, held 3 min, 100 µL/min
Conditions: column: Zorbax Extend-C18 2.1 x 50 mm; eluents: water / acetonitrile, 0.1% formic acid
In short: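 Values are retention times taken from adduct peaks that software picked and an analyst inspected. The pure standards were run as mixtures of ~100 molecules on HPLC linked to a quadrupole time-of-flight mass spectrometer, in positive and negative ionization mode. A Zorbax Extend-C18 column (2.1 × 50 mm, 1.8 μm) was used at 100 μL/min with water and acetonitrile, each including 0.1% formic acid.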

SMILES | RP-LC retention time [s]
O=[N+]([O-])c1cccc(-c2nnc3c4cnn(-c5ccc(F)cc5)c4ncn23)c1 | 1080
CCN(CC)C(=O)c1ccc2c(c1)N(CC(=O)Nc1cc(C)cc(C)c1)C(=O)CS2 | 858
O=C(NC1CCCC1)c1ccc2ccnc(N3CCN(c4ccccc4)CC3)c2c1 | 776
Cn1c(=O)c(N2CCC(C(=O)NCCc3ccco3)CC2)nc2cccnc21 | 811
O=C(c1cnccn1)N1CCC(N2C(=O)C(OCC3CC3)C23CCOCC3)CC1 (configuration not stated) | 607
Cc1cccc(-c2nc(Cn3nnc(-c4nc(-c5ccncc5)no4)c3C)c(C)o2)c1 | 1070
COCc1nc(N(C)Cc2ccccc2)ncc1C(=O)O | 804
Cn1ncc2c3ccccc3n(CCCC(=O)NCc3ccc4c(c3)OCO4)c2c1=O | 751
O=C(Cc1ccccc1)N1CCCC1c1nc(-c2ccccc2Cl)no1 (configuration not stated) | 994
CC(C)(C)C(=O)N1CCC(C(=O)NCc2ccc3c(c2)OCO3)CC1 | 712
COc1ccc(-c2noc(-c3nc(-c4cc(OC)c(OC)c(OC)c4)no3)n2)cc1 | 1080
CCc1nnc(-c2cc(C)n(CC(=O)Nc3cc(F)cc(F)c3)c2C)o1 | 844
CC(Cc1ccco1)NC(=O)CC1CCN(C(=O)c2ccc3nc(-c4ccccc4)oc3c2)CC1 (configuration not stated) | 830
Cc1nn2c(CNS(=O)(=O)Cc3ccccc3)c(-c3ccccc3)nc2s1 | 876
CN(CC(=O)N1CCN(c2cccc(Cl)c2)CC1)S(=O)(=O)c1ccc2c(c1)CCCC(=O)N2 | 822
O=C(Cc1ccccc1Cl)NC1CCN(c2ccc(=O)n(CC3CC3)n2)C1 (configuration not stated) | 760
Cc1csc(-c2cc(S(=O)(=O)N3CCc4ccccc4C3)c(C)s2)n1 | 1160
Cc1cc(C(=O)N2CCCCC2)c2c(=O)n(Cc3ccc(Cl)cc3)c(=O)n(C)c2n1 | 1020
COCCNC(=O)C1CCN(C(=O)c2ncn3c2COC(c2ccc(F)cc2)C3)CC1 (configuration not stated) | 645
O=C(CCn1c(=O)sc2ccccc21)Nc1ccc(Br)cc1 | 884
COc1ccc(-c2noc(-c3ccc(NCCCN4CCC(N5CCCCC5)CC4)nn3)n2)cc1 | 603
CCc1ccccc1NC(=O)c1cccn1Cc1noc(C)n1 | 845

SMILES | RP-LC retention time [s]
COc1ccc(CCC(=O)N2CCC3(C2)C(=O)Nc2ccccc23)cc1 (configuration not stated) | 729
CCCCNC(=O)CCC(=O)N1CC2CCCN2c2ccccc21 (configuration not stated) | 837
CC1(c2ccccc2)O[C@@H]2C[C@H]3[C@@H]4CCC5=CC(=O)C=C[C@]5(C)[C@@]4(F)[C@@H](O)C[C@]3(C)[C@]2(C(=O)CO)O1 (some centres not stated) | 870
CN1C(=O)Cc2ccccc2C1C(=O)NCc1ccc(Cl)cc1 (configuration not stated) | 762
CCOc1ccccc1-c1noc(CN2C(=O)COc3ccc(C)cc32)n1 | 1030
O=C(Cn1cccc1-c1nc(-c2ccc(Cl)cc2)cs1)NCc1ccco1 | 1080
CCOC(=O)c1ccc(Nc2c(-c3ccc(C(=O)OC)cc3)nc3cnccn23)cc1 | 856
Cn1nc(C(=O)N2CCC(C(=O)NC3CCCCCC3)CC2)c2c1CCN(C(=O)c1ccccc1)C2 | 742
CCSc1nnc(NC(=O)CSC2=NN3CCCC(=O)N=C3S2)s1 | 683
COc1ccc(NC(=O)CSc2cc(N3CCN(c4ccccc4OC)CC3)ncn2)c(OC)c1 | 791
COc1ccc(-c2noc(C3CC(=O)N(c4ccc(OC)c(OC)c4)C3)n2)c(OC)c1 (configuration not stated) | 786
Cc1nn(-c2nc3ccccc3[nH]2)c2c1C(=O)CC(c1ccc(F)cc1)C2 (configuration not stated) | 1000
Cc1c(-c2ccccc2)nc2ccccc2c1C(=O)N1CCN(c2ncccn2)CC1 | 636
CC(=O)c1cccc(NC(=O)Cc2csc3nc(-c4ccccc4)cn23)c1 | 729
COc1ccc2c(c1)CC(C(=O)N1CCN(C(=O)c3ccco3)CC1)CO2 (configuration not stated) | 725
COC(=O)c1cc(S(=O)(=O)N2CCCC2C(=O)Nc2cccc(OC)c2)cn1C (configuration not stated) | 826
Cc1ccc(N2CC(c3noc(-c4ccc(-c5ccccc5)cc4)n3)CC2=O)cc1 (configuration not stated) | 1180
CCOc1ccc(-c2cc3c(=O)n(Cc4nc(-c5ccccc5Br)no4)ncn3n2)cc1 | 1160
CC(C)c1ccc(S(=O)(=O)N2CCN(c3cnn4cnnc4c3)CC2)cc1 | 795
Cc1ccc(-c2nnc(-c3nc(NCc4ccccn4)c4ccccc4n3)o2)cc1 | 703
O=C(c1cn2nc(Cl)ccc2n1)N1CCN(c2ccccc2F)CC1 | 836
COc1ccc(C2Cn3nnc(-c4nc(-c5ccccc5OC)no4)c3CO2)cc1 (configuration not stated) | 1010

SMILES | RP-LC retention time [s]
O=S(=O)(NCc1ccccn1)c1ccc(F)c(Cl)c1 | 643
CC(=O)N1CCN(c2nc3c(s2)CC(C(=O)Nc2cccc(Cl)c2)CC3)CC1 (configuration not stated) | 628
CCc1nn(CC)c(=O)c2cc(S(=O)(=O)NC(C)c3ccccc3)cn12 (configuration not stated) | 964
Cc1nc(-c2csc(S(=O)(=O)N3CCC(C(=O)NCc4ccccc4)CC3)c2)no1 | 844
O=C(NCc1ccccc1)C1CCN(S(=O)(=O)c2ccc3[nH]c(=O)ccc3c2)CC1 | 683
Cc1cc(N2CCCCC2)nc(N2CCN(C(=O)C3CCCC3)CC2)n1 | 713
O=C1Nc2cc(C(=O)N3CCN(c4ccc(Cl)cc4)CC3)ccc2N2CCCCC12 (configuration not stated) | 638
NCC(O)COc1cccc2ccccc12 (configuration not stated) | 679
Cc1ccc2c(Nc3ccccc3Cl)c(-c3nc(C)no3)cnc2n1 | 821
CCOC(=O)C1CCN(C(=O)Cn2nc3cc(-c4ccccc4)nc(C)n3c2=O)CC1 | 858
CC(C)N(CCCNC(=O)Cn1cc2c(n1)CCCCC2)Cc1ccccc1 | 674
CCCn1cc(CCNS(=O)(=O)CC)c2cccnc21 | 661
Cc1nc2c(sc3nc(-c4ccccc4)ccc32)c(=O)n1CC(=O)Nc1ccccc1Cl | 1090
CCc1ccc(S(=O)(=O)N2CCCC2c2nc(-c3cccc(C)c3)no2)cc1 (configuration not stated) | 1260
Cc1cc(Cc2ccc(S(=O)(=O)N3CCN(C)CC3)cc2)c(=O)[nH]n1 | 575
COc1ccc(-c2nnc(-c3ccc(Cl)c(S(=O)(=O)N4CCC(C)CC4)c3)o2)cc1 | 1230
Cc1noc([C@@H]2CN(Cc3cc(F)cc(F)c3)C[C@H]2CO)n1 | 546
Cc1cc(C)c(S(=O)(=O)N(CCN2CCCCC2C)CC(=O)N2CCNCC2)cc1C (configuration not stated) | 601
CCN(C(=O)C1CCCN(c2ncnc3c2nc2n3CCCCC2)C1)c1cccc(Cl)c1 (configuration not stated) | 912
Cc1ccc(CNc2c(-c3ccc(C)cc3)nc3ncccn23)cc1 | 812
O=C1NCCCCCN(C(=O)c2ccsc2)[C@H]2CCC[C@@H]12 | 692
O=C(NC1CC(=O)N(C2CC2)C1)c1cc(-c2ccccc2)n[nH]1 (configuration not stated) | 607

SMILES | RP-LC retention time [s]
CN(C)S(=O)(=O)c1ccc(-c2nnc(C(=O)NCc3ccccc3F)o2)cc1 | 840
O=C(NCC1CCN(C(=O)Nc2ccc(F)cc2)CC1)c1ccccc1Cl | 713
O=C(C1=NN(Cc2cccc(F)c2)c2cc(Cl)ccc2S1(=O)=O)N1CCOCC1 | 904
O=C(Nc1nc(-c2nc3ccccc3s2)cs1)c1ccc([N+](=O)[O-])s1 | 1020
O=C(NCC1COc2ccccc2O1)C(=O)N1CCCCC1 (configuration not stated) | 757
Cc1nn(C(C)C(=O)N2CCC(N3CCCCC3)CC2)c(=O)c2nn(-c3ccccc3)c(C)c12 (configuration not stated) | 622
COc1cccc(Oc2nccnc2N2CCC(C(=O)N3CCN(c4ccccn4)CC3)CC2)c1 | 658
CC(C)c1ccc(NC(=O)C2CCN(S(=O)(=O)c3cc(C(=O)N(C)C)cs3)CC2)cc1 | 958
CCOc1ccc(S(=O)(=O)N2CCC(C(=O)Nc3ccc(F)c(Cl)c3)CC2)cc1 | 1030
O=C(NC1CCCCC1)c1nnc(-c2ccc(S(=O)(=O)N3CCOCC3)cc2)o1 | 854
Cc1ccc(CCNC(=O)Cc2csc3nc(-c4ccc(C)c(C)c4)cn23)cc1 | 884
Cc1cc(-c2nnc3sc(COc4ccc(Br)cc4)nn23)n[nH]1 | 786
O=C(CCC1CCCC1)N1CCN(c2nnc3ccc(Cl)cn23)CC1 | 832
Cc1ccc(CNC(=O)C2(C)CCCCC(=O)N2)cc1 (configuration not stated) | 685
Cc1ccc(-c2ccc(-n3nc(C)c(S(=O)(=O)N4CCOCC4)c3C)nn2)cc1 | 972
Cn1cc(CCN2CCN(C(=O)c3ccc(Br)cc3)CC2)c2cccnc21 | 620
COc1ccc2[nH]c(=O)c(CCC(=O)NCc3ccncc3)cc2c1 | 574
O=C(NCCC1=CCCCC1)C(=O)Nc1cccc([N+](=O)[O-])c1 | 1030
CC(C)C(=O)N1N=C(c2ccc(NS(=O)(=O)c3ccccc3)cc2)CC1c1ccco1 (configuration not stated) | 870
CNC(=O)[C@@H]1CN(C(=O)c2ccoc2C)C[C@H]1c1nc(C)no1 | 612
O=C(NCCCN1CCC(N2CCCCC2)CC1)c1ccc2c(c1)NC(=O)C1CCCCN21 (configuration not stated) | 537
